# Columns and labels:
# Assay in all cases: relative viability (nuclei count vs DMSO), 5 days (fraction); higher = more cells survive
# [1] = compound: C[C@]1(O)C[C@@H](c2nc(-c3ccc4ccc(-c5ccccc5)nc4c3)c3c(N)nccn32)C1 [Linsitinib] + CC(=O)c1c(C)c2cnc(Nc3ccc(N4CCNCC4)cn3)nc2n(C2CCCC2)c1=O [Palbociclib] (partner 0.5 µM)
# In short: (§1)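 Relative viability is defined as nuclei in treated wells over nuclei in vehicle wells. Duplicate plates were run and medians reported. Lung cancer cell lines in 1536-well plates were dosed by pin tool one day after seeding, with one drug or with a fixed anchor-drug dose plus five library-drug doses (not always all listed) in √10 steps, and nuclei were counted after 5 days.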
# [2] = compound: C[C@]1(O)C[C@@H](c2nc(-c3ccc4ccc(-c5ccccc5)nc4c3)c3c(N)nccn32)C1 [Linsitinib] + COc1cc2c(Oc3ccc(NC(=O)C4(C(=O)Nc5ccc(F)cc5)CC4)cc3F)ccnc2cc1OCCCN1CCOCC1 [Foretinib] (partner 0.25 µM)
# In short: as §1
# [3] = compound: Cc1ccc(C(=O)N(CCCN)[C@@H](c2nc3cc(Cl)ccc3c(=O)n2Cc2ccccc2)C(C)C)cc1 [Ispinesib] + C[C@]1(O)C[C@@H](c2nc(-c3ccc4ccc(-c5ccccc5)nc4c3)c3c(N)nccn32)C1 [Linsitinib] (partner 1 µM)
# In short: as §1
# [4] = compound: Cc1ccc(C(=O)N(CCCN)[C@@H](c2nc3cc(Cl)ccc3c(=O)n2Cc2ccccc2)C(C)C)cc1 [Ispinesib] + Nc1nc2[nH]cc(CCc3ccc(C(=O)N[C@@H](CCC(=O)O)C(=O)O)cc3)c2c(=O)[nH]1 [Pemetrexed] (partner 0.2 µM)
# In short: as §1
Cell Line,relative viability ([1]; first compound 0.01 µM),relative viability ([1]; first compound 0.03162 µM),relative viability ([1]; first compound 0.1 µM),relative viability ([1]; first compound 0.3162 µM),relative viability ([1]; first compound 1 µM),relative viability ([2]; first compound 0.01 µM),relative viability ([2]; first compound 0.03162 µM),relative viability ([2]; first compound 0.1 µM),relative viability ([2]; first compound 0.3162 µM),relative viability ([2]; first compound 1 µM),relative viability ([3]; first compound 0.001 µM),relative viability ([3]; first compound 0.003162 µM),relative viability ([3]; first compound 0.01 µM),relative viability ([3]; first compound 0.03162 µM),relative viability ([3]; first compound 0.1 µM),relative viability ([4]; first compound 0.001 µM),relative viability ([4]; first compound 0.003162 µM),relative viability ([4]; first compound 0.01 µM),relative viability ([4]; first compound 0.03162 µM),relative viability ([4]; first compound 0.1 µM)
NCI-H2405,0.503,0.537,0.521,0.47,0.473,1.01,1.04,1.06,0.965,0.813,0.974,0.755,0.968,0.783,0.435,1.1,1.06,0.9,0.934,0.423
NCI-H3122,0.202,0.222,0.17,,0.216,0.913,0.945,0.978,0.874,0.907,1.07,1.09,1.07,1.13,0.251,0.196,0.221,0.198,0.217,0.107
PC-3 [JPC-3],0.548,0.544,0.558,0.471,0.493,1.04,1.03,1.04,0.951,0.922,0.937,0.917,0.949,0.989,1.03,1.29,1.39,1.02,0.674,0.384
PC-14,0.513,0.46,0.521,0.429,0.507,0.888,0.912,0.995,0.626,0.901,1.08,1.13,1.1,0.862,0.17,0.132,0.139,0.0661,0.0425,0.0577
RERF-LC-KJ,0.909,0.795,1.05,0.464,1.1,0.836,0.935,0.907,0.487,0.79,1.01,0.855,1.02,0.819,0.244,0.43,0.516,0.443,0.309,0.202
SK-LU-1,0.436,0.303,0.394,0.391,0.384,0.813,,0.804,0.712,0.72,1.15,1.32,1.43,0.932,0.382,1.07,0.972,1.27,0.897,0.412
SK-MES-1,0.325,0.297,0.323,0.296,0.324,0.865,1.08,0.999,0.778,0.81,1.1,1.09,1.21,1.11,0.261,1.02,1.04,0.805,0.206,0.234
SW 1573,0.428,0.358,0.333,0.259,0.33,0.959,0.912,0.764,0.744,0.628,0.934,0.743,0.983,0.801,0.453,0.799,0.791,0.78,0.279,0.152

# — the supplement of paper PMC10307832
